ChEMBL document CHEMBL1144860, “Spermicidal bacteriocins: lacticin 3147 and subtilosin A” (2008)
Activity calls are given as the source filed them. No cut-off for these calls is given here.

Experiments:
Spermatozoa [1] = experiment: Spermicidal activity against boar sperm at 50 ug/mL assessed as time required for sperm death; assay type: functional, cell-based; settings: Sus scrofa
Spermatozoa [2] = experiment: Spermicidal activity against rat sperm at 200 ug/mL assessed as time required for sperm death; assay type: functional
Spermatozoa [3] = experiment: Spermicidal activity against boar sperm at 200 ug/mL assessed as time required for sperm death; assay type: functional, Sus scrofa
Spermatozoa [4] = experiment: Spermicidal activity against bovine spermatozoa at 800 ug/mL assessed as time required for sperm death; assay type: functional, Bos taurus
Spermatozoa [5] = experiment: Spermicidal activity against horse sperm at 800 ug/mL assessed as time required for sperm death; assay type: functional, Equus caballus

Row | Compound | Activity (Spermatozoa [1]) | Time (Spermatozoa [2]) | Time (Spermatozoa [3]) | Time (Spermatozoa [4]) | Time (Spermatozoa [5])
1 | C/C=C(\NC(=O)[C@H](CC(N)=O)NC(=O)/C(=C\C)NC(=O)[C@H](C)NC(=O)[C@H](C)N)C(=O)N[C@@H](Cc1ccccc1)C(=O)N[C@H](C)C(=O)N[C@@H](CC(C)C)C(=O)N[C@@H]1CSC[C@H](C(=O)N[C@H]2C(=O)N[C@@H](CC(C)C)C(=O)N[C@H]3C(=O)N[C@@H](Cc4cnc[nH]4)C(=O)N[C@@H](CCC(=O)O)C(=O)N[C@@H](CCS[C@H]2C)C(=O)N[C@@H](CCSC)C(=O)N[C@@H](C)C(=O)N[C@@H](Cc2c[nH]c4ccccc24)C(=O)N[C@H](C(=O)N[C@@H](CCCCN)C(=O)O)CSC3C)NC(=O)[C@H](Cc2c[nH]c3ccccc23)NC(=O)[C@H](C)NC(=O)CNC(=O)[C@H](CC(N)=O)NC(=O)[C@H](CC(N)=O)NC(=O)CNC(=O)[C@H](Cc2c[nH]c3ccccc23)NC(=O)[C@H](Cc2ccc(O)cc2)NC(=O)[C@H](CC(=O)O)NC1=O (stereo not given in full) | Active | – | – | – | –
2 | C/C=C(\NC(=O)C(=O)CC)C(=O)N1CCC[C@H]1C(=O)N[C@@H](C)C(=O)N/C(=C\C)C(=O)N1CCC[C@H]1C(=O)N[C@@H](C)C(=O)N[C@H](C(=O)N[C@H](C)C(=O)N[C@H](C(=O)N[C@@H](CC(C)C)C(=O)N[C@H](C)C(=O)N[C@@H](C)C(=O)N[C@@H](Cc1ccc(O)cc1)C(=O)N[C@H](C(=O)N[C@H]1CSC[C@H](C(=O)N2CCC[C@H]2C(=O)N[C@H]2C(=O)N[C@@H]([C@@H](C)O)C(=O)N[C@@H](CCCCN)C(=O)N[C@H](C(=O)N[C@H]3C(=O)N[C@@H](CCCNC(=N)N)C(=O)N[C@@H](C)C(=O)N[C@@H](C(=O)O)CSC3C)CSC2C)NC(=O)[C@H]([C@@H](C)O)NC(=O)[C@H](CC(N)=O)NC(=O)[C@H]([C@@H](C)O)NC1=O)[C@@H](C)CC)[C@@H](C)CC)[C@@H](C)CC (stereo not given in full) | Active | – | – | – | –
3 | C/C=C(\NC(=O)C(=O)CC)C(=O)N1CCC[C@H]1C(=O)N[C@@H](C)C(=O)N/C(=C\C)C(=O)N1CCC[C@H]1C(=O)N[C@@H](C)C(=O)N[C@H](C(=O)N[C@H](C)C(=O)N[C@H](C(=O)N[C@@H](CC(C)C)C(=O)N[C@H](C)C(=O)N[C@@H](C)C(=O)N[C@@H](Cc1ccc(O)cc1)C(=O)N[C@H](C(=O)N[C@@H]1CSC[C@@H](C(=O)N2CCC[C@H]2C(=O)N[C@H]2C(=O)N[C@@H]([C@@H](C)O)C(=O)N[C@@H](CCCCN)C(=O)N[C@H](C(=O)N[C@H]3C(=O)N[C@@H](CCCNC(=N)N)C(=O)N[C@@H](C)C(=O)N[C@H](C(=O)O)CSC3C)CSC2C)NC(=O)[C@H]([C@@H](C)O)NC(=O)[C@H](CC(N)=O)NC(=O)[C@H]([C@@H](C)O)NC1=O)[C@@H](C)CC)[C@@H](C)CC)[C@@H](C)CC (stereo not given in full) | – | 2 min | 1.8 min | 2.5 min | 4.8 min
4 | C/C=C(\NC(=O)[C@H](CC(N)=O)NC(=O)/C(=C/C)NC(=O)[C@H]1CSC[C@H](N)C(=O)N1)C(=O)N[C@@H](Cc1ccccc1)C(=O)N[C@H](C)C(=O)N[C@@H](CC(C)C)C(=O)N[C@@H]1CSC[C@@H](C(=O)N[C@H]2C(=O)N[C@@H](CC(C)C)C(=O)N[C@H]3C(=O)N[C@@H](Cc4cnc[nH]4)C(=O)N[C@@H](CCC(=O)O)C(=O)N[C@@H](CS[C@H]2C)C(=O)N[C@@H](CCSC)C(=O)N[C@@H](C)C(=O)N[C@@H](Cc2c[nH]c4ccccc24)C(=O)N[C@H](C(=O)N[C@@H](CCCCN)C(=O)O)CS[C@H]3C)NC(=O)[C@H](Cc2c[nH]c3ccccc23)NC(=O)[C@H](C)NC(=O)CNC(=O)[C@H](CC(N)=O)NC(=O)[C@H](CC(N)=O)NC(=O)CNC(=O)[C@H](Cc2c[nH]c3ccccc23)NC(=O)[C@H](Cc2ccc(O)cc2)NC(=O)[C@H](CC(=O)O)NC1=O | – | 2.3 min | 2.5 min | 16.6 min | 12.7 min
